# In ChEMBL document CHEMBL1201862, “PubChem BioAssay data set” (2004):
#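 96-well plates; 48 h exposure; 5 concentrations. Endpoints by linear interpolation between flanking doses. Not reached: highest tested concentration assigned. At the GI50, growth is halved.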 Calls of active or inactive are those of the source. No stated cut-off is given here; in the data, active = GI50 up to about 1.1 µM and inactive = higher.
# Experiments:
# Assay in all cases: NCI tumour cell line growth inhibition, 48 h
# SR = system: SR
# NCI-H226 = system: NCI-H226
# MDA-MB-435 = system: MDA-MB-435
# HCT-116 = system: HCT-116
# 786-0 = system: 786-0
# EKVX = system: EKVX
# COLO 205 = system: COLO 205
# HOP-62 = system: HOP-62
# A498 = system: A498
# HCT-15 = system: HCT-15
# MCF7 = system: MCF7
# SK-MEL-2 = system: SK-MEL-2
# OVCAR-8 = system: OVCAR-8
# KM12 = system: KM12
# RXF 393 = system: RXF 393
# SK-MEL-28 = system: SK-MEL-28
# UACC-62 = system: UACC-62
# Hs-578T = system: Hs-578T
# HT-29 = system: HT-29
# IGROV-1 = system: IGROV-1
# CAKI-1 = system: CAKI-1
# SF-539 = system: SF-539
# CCRF-CEM = system: CCRF-CEM
# SK-OV-3 = system: SK-OV-3
# A549 = system: A549
# TK-10 = system: TK-10
# MOLT-4 = system: MOLT-4
# T47D = system: T47D
# SNB-75 = system: SNB-75
# U-251 = system: U-251
# MDA-MB-231 = system: MDA-MB-231
# UACC-257 = system: UACC-257
# MDA-N = system: MDA-N
# SW-620 = system: SW-620
# NCI-H460 = system: NCI-H460
# Malme-3M = system: Malme-3M
# PC-3 = system: PC-3
# ACHN = system: ACHN
# HCC 2998 = system: HCC 2998
# RPMI-8226 = system: RPMI-8226
# OVCAR-5 = system: OVCAR-5
# K562 = system: K562
# NCI-H522 = system: NCI-H522
# OVCAR-3 = system: OVCAR-3
# HOP-92 = system: HOP-92
# LOX IMVI = system: LOX IMVI
# SK-MEL-5 = system: SK-MEL-5
# NCI/ADR-RES = system: NCI/ADR-RES
# BT-549 = system: BT-549
# HL-60 = system: HL-60
# SN12C = system: SN12C
# OVCAR-4 = system: OVCAR-4
# UO-31 = system: UO-31
# M14 = system: M14
# SF-295 = system: SF-295
# SF-268 = system: SF-268
# NCI-H23 = system: NCI-H23
# DU-145 = system: DU-145
# SNB-19 = system: SNB-19
compound,measurement,setting,value
C=C1C(=O)OC2C1C(OC(=O)/C(C)=C/C)CC1(C)C(=O)CCC(=C)C21 (stereo not given),GI50,SR,2.06 µM (inactive)
same,GI50,NCI-H226,20.7 µM (inactive)
same,GI50,MDA-MB-435,8.2 µM (inactive)
same,GI50,HCT-116,4.03 µM (inactive)
same,GI50,786-0,4.02 µM (inactive)
same,GI50,EKVX,16.3 µM (inactive)
same,GI50,COLO 205,5.33 µM (inactive)
same,GI50,HOP-62,16.9 µM (inactive)
same,GI50,A498,13.8 µM (inactive)
same,GI50,HCT-15,3.15 µM
same,GI50,MCF7,4.49 µM (inactive)
same,GI50,SK-MEL-2,11.9 µM (inactive)
same,GI50,OVCAR-8,12.1 µM (inactive)
same,GI50,KM12,16.4 µM (inactive)
same,GI50,RXF 393,2.83 µM (inactive)
same,GI50,SK-MEL-28,3.47 µM (inactive)
same,GI50,UACC-62,8.47 µM (inactive)
same,GI50,Hs-578T,27.8 µM (inactive)
same,GI50,HT-29,4.88 µM (inactive)
same,GI50,IGROV-1,11.3 µM (inactive)
same,GI50,CAKI-1,4.79 µM (inactive)
same,GI50,SF-539,11.3 µM (inactive)
same,GI50,CCRF-CEM,2.3 µM (inactive)
same,GI50,SK-OV-3,25.2 µM (inactive)
same,GI50,A549,19.2 µM (inactive)
same,GI50,TK-10,4.89 µM (inactive)
same,GI50,MOLT-4,2.77 µM (inactive)
same,GI50,T47D,13.1 µM (inactive)
same,GI50,SNB-75,15.9 µM (inactive)
same,GI50,U-251,13.1 µM (inactive)
same,GI50,MDA-MB-231,17.9 µM (inactive)
same,GI50,UACC-257,11.2 µM (inactive)
same,GI50,MDA-N,5.07 µM (inactive)
same,GI50,SW-620,2.93 µM (inactive)
same,GI50,NCI-H460,13.3 µM (inactive)
same,GI50,Malme-3M,5.85 µM (inactive)
same,GI50,PC-3,11 µM (inactive)
same,GI50,ACHN,2.4 µM (inactive)
same,GI50,HCC 2998,9.73 µM (inactive)
same,GI50,RPMI-8226,1.95 µM (inactive)
same,GI50,OVCAR-5,14.8 µM (inactive)
same,GI50,K562,3.13 µM (inactive)
same,GI50,NCI-H522,2.54 µM (inactive)
same,GI50,OVCAR-3,6.92 µM (inactive)
same,GI50,HOP-92,1.62 µM (inactive)
same,GI50,LOX IMVI,3.94 µM (inactive)
same,GI50,SK-MEL-5,7.64 µM (inactive)
same,GI50,NCI/ADR-RES,6.89 µM (inactive)
same,GI50,BT-549,6.27 µM (inactive)
same,GI50,HL-60,1.89 µM (inactive)
same,GI50,SN12C,2.15 µM (inactive)
same,GI50,OVCAR-4,11 µM (inactive)
same,GI50,UO-31,6.55 µM (inactive)
same,GI50,M14,5.26 µM (inactive)
same,GI50,SF-295,18.5 µM (inactive)
same,GI50,SF-268,10.7 µM (inactive)
same,GI50,NCI-H23,12.8 µM (inactive)
same,GI50,DU-145,8.07 µM (inactive)
N/C(=N\Nc1ccc(C(=O)O)cc1)c1cnccn1,GI50,SR,> 100 µM (inactive)
same,GI50,NCI-H226,> 100 µM (inactive)
same,GI50,MDA-MB-435,> 100 µM (inactive)
same,GI50,HCT-116,> 100 µM (inactive)
same,GI50,786-0,> 100 µM (inactive)
same,GI50,EKVX,> 100 µM (inactive)
same,GI50,COLO 205,> 100 µM (inactive)
same,GI50,HOP-62,> 100 µM (inactive)
same,GI50,A498,> 100 µM (inactive)
same,GI50,HCT-15,> 100 µM
same,GI50,MCF7,> 100 µM (inactive)
same,GI50,SK-MEL-2,> 100 µM (inactive)
same,GI50,OVCAR-8,> 100 µM (inactive)
same,GI50,KM12,> 100 µM (inactive)
same,GI50,RXF 393,> 100 µM (inactive)
same,GI50,SK-MEL-28,> 100 µM (inactive)
same,GI50,UACC-62,> 100 µM (inactive)
same,GI50,Hs-578T,> 100 µM (inactive)
same,GI50,HT-29,> 100 µM (inactive)
same,GI50,IGROV-1,> 100 µM (inactive)
same,GI50,CAKI-1,> 100 µM (inactive)
same,GI50,SF-539,> 100 µM (inactive)
same,GI50,SK-OV-3,> 100 µM (inactive)
same,GI50,A549,> 100 µM (inactive)
same,GI50,TK-10,> 100 µM (inactive)
same,GI50,MOLT-4,> 100 µM (inactive)
same,GI50,T47D,> 100 µM (inactive)
same,GI50,SNB-75,> 100 µM (inactive)
same,GI50,U-251,> 100 µM (inactive)
same,GI50,MDA-MB-231,> 100 µM (inactive)
same,GI50,UACC-257,> 100 µM (inactive)
same,GI50,SNB-19,> 100 µM (inactive)
same,GI50,MDA-N,> 100 µM (inactive)
same,GI50,SW-620,> 100 µM (inactive)
same,GI50,NCI-H460,> 100 µM (inactive)
same,GI50,Malme-3M,37.2 µM (inactive)
same,GI50,PC-3,> 100 µM (inactive)
same,GI50,ACHN,> 100 µM (inactive)
same,GI50,HCC 2998,> 100 µM (inactive)
same,GI50,RPMI-8226,> 100 µM (inactive)
same,GI50,OVCAR-5,> 100 µM (inactive)
same,GI50,K562,> 100 µM (inactive)
same,GI50,NCI-H522,> 100 µM (inactive)
same,GI50,OVCAR-3,> 100 µM (inactive)
same,GI50,HOP-92,> 100 µM (inactive)
same,GI50,LOX IMVI,> 100 µM (inactive)
same,GI50,SK-MEL-5,> 100 µM (inactive)
same,GI50,NCI/ADR-RES,> 100 µM (inactive)
same,GI50,BT-549,> 100 µM (inactive)
same,GI50,HL-60,< 0.01 µM (active)
same,GI50,SN12C,> 100 µM (inactive)
same,GI50,OVCAR-4,> 100 µM (inactive)
same,GI50,UO-31,> 100 µM (inactive)
same,GI50,M14,> 100 µM (inactive)
same,GI50,SF-295,> 100 µM (inactive)
same,GI50,SF-268,> 100 µM (inactive)
same,GI50,NCI-H23,> 100 µM (inactive)
same,GI50,DU-145,> 100 µM (inactive)
CC(Oc1ccccc1Cl)C(=O)NN1C(=O)CC(=O)N(c2ccc(Cl)cc2)C1=S (stereo not given),GI50,SR,8.77 µM (inactive)
same,GI50,NCI-H226,52.8 µM (inactive)
same,GI50,MDA-MB-435,61 µM (inactive)
same,GI50,HCT-116,32.1 µM (inactive)
same,GI50,786-0,40.8 µM (inactive)
same,GI50,EKVX,45.4 µM (inactive)
same,GI50,COLO 205,39.7 µM (inactive)
same,GI50,HOP-62,46.3 µM (inactive)
same,GI50,A498,20.4 µM (inactive)
same,GI50,HCT-15,36.6 µM
same,GI50,MCF7,29.6 µM (inactive)
same,GI50,SK-MEL-2,27.9 µM (inactive)
same,GI50,OVCAR-8,38.8 µM (inactive)
same,GI50,KM12,47.6 µM (inactive)
same,GI50,RXF 393,30 µM (inactive)
same,GI50,SK-MEL-28,94.6 µM (inactive)
same,GI50,UACC-62,30.3 µM (inactive)
same,GI50,Hs-578T,49.8 µM (inactive)
same,GI50,HT-29,47.8 µM (inactive)
same,GI50,IGROV-1,50.1 µM (inactive)
same,GI50,CAKI-1,40.7 µM (inactive)
same,GI50,SF-539,75.5 µM (inactive)
same,GI50,CCRF-CEM,< 0.01 µM (active)
same,GI50,SK-OV-3,59 µM (inactive)
same,GI50,A549,36.5 µM (inactive)
same,GI50,TK-10,54.7 µM (inactive)
same,GI50,MOLT-4,27.4 µM (inactive)
same,GI50,T47D,34.6 µM (inactive)
same,GI50,SNB-75,47.5 µM (inactive)
same,GI50,U-251,39.4 µM (inactive)
same,GI50,MDA-MB-231,40.4 µM (inactive)
same,GI50,UACC-257,45.1 µM (inactive)
same,GI50,SNB-19,66.5 µM (inactive)
same,GI50,MDA-N,37.6 µM (inactive)
same,GI50,SW-620,52 µM (inactive)
same,GI50,NCI-H460,39.3 µM (inactive)
same,GI50,Malme-3M,> 100 µM (inactive)
same,GI50,PC-3,38.1 µM (inactive)
same,GI50,ACHN,37.4 µM (inactive)
same,GI50,HCC 2998,50.9 µM (inactive)
same,GI50,RPMI-8226,33.2 µM (inactive)
same,GI50,OVCAR-5,75.3 µM (inactive)
same,GI50,K562,13.1 µM (inactive)
same,GI50,NCI-H522,23.3 µM (inactive)
same,GI50,OVCAR-3,38.4 µM (inactive)
same,GI50,HOP-92,22.6 µM (inactive)
same,GI50,LOX IMVI,30.8 µM (inactive)
same,GI50,SK-MEL-5,36 µM (inactive)
same,GI50,NCI/ADR-RES,36.1 µM (inactive)
same,GI50,BT-549,55.1 µM (inactive)
same,GI50,HL-60,3.21 µM (inactive)
same,GI50,SN12C,35.2 µM (inactive)
same,GI50,OVCAR-4,28.1 µM (inactive)
same,GI50,UO-31,37.1 µM (inactive)
same,GI50,M14,47.5 µM (inactive)
same,GI50,SF-295,44.1 µM (inactive)
same,GI50,SF-268,67.1 µM (inactive)
same,GI50,NCI-H23,38 µM (inactive)
same,GI50,DU-145,34.6 µM (inactive)
